# Laboratory results reported in patent US12440496B2, “Natriuretic peptide receptor a agonists useful for the treatment of cardiometabolic diseases, kidney disease and diabetes” (Merck Sharp & Dohme LLC, priority 2019, dated 2025).
# Target: T1, hNPRA (Homo sapiens, UniProt P16066)
# T1 construct: expressed in transfected cells
# T1 sequence (P16066 33-1061): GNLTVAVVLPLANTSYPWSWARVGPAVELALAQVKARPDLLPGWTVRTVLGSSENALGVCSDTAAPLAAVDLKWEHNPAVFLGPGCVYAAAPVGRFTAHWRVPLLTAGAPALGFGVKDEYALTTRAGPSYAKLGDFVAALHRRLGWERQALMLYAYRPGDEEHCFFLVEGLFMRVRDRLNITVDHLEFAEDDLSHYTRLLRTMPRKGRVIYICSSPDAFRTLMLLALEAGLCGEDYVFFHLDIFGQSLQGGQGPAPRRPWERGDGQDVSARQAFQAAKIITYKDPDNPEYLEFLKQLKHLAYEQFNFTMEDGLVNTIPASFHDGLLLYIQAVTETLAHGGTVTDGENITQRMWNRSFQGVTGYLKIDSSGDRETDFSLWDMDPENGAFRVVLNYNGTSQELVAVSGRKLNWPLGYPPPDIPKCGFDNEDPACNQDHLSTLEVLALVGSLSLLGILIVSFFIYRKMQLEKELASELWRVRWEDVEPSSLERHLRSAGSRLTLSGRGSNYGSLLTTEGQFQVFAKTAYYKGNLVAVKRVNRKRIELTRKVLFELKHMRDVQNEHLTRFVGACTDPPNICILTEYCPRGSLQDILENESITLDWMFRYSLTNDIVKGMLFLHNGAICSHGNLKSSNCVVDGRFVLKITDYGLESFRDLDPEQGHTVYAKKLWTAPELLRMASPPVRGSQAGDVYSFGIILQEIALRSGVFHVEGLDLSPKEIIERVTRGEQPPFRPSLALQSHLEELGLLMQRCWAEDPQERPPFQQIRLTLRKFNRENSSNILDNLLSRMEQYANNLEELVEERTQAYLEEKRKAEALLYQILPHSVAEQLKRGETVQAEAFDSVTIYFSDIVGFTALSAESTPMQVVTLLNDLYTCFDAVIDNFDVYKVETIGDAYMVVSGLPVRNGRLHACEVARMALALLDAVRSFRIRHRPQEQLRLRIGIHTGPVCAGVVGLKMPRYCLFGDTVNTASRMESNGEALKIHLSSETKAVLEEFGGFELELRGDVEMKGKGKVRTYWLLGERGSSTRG
# Assay: NPRA Functional Cell Assay (cGMP HTRF, NPRA HEK JumpIn stable cells)
# Type: cell-based
# Conditions: cGMP production, 1 hour at 37° C., 10-point dose response
# Outline: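 cGMP HTRF read-out after 1 hour compound treatment at 37° C. of human NPRA-expressing HEK JumpIn cells, 1500 cells/well, in buffer with phosphodiesterase inhibitors IBMX and RO20 (100 uM each). Signal converted to [cGMP] by calibration curve; EC50s fitted by 4-parameter logistic; 50 nM h-ANP as positive response.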
row,EC50 [µM],SMILES
1,0.692,"CC(C)(C)[C@H]1CCc2nc3sc(C(=O)N[C@H](CCN4CCC(O)C4)c4ccc(-c5ccc(=O)[nH]c5)cc4)nc3cc2C1 (mixture of isomers) [Example 78, rac-(7S)-7-tert-butyl-N-[rac-(1R)-3-(3-hydroxypyrrolidin-1-yl)-1-[4-(6-oxo-1H-pyridin-3-yl)phenyl]propyl]-5,6,7,8-tetrahydrothiazolo[5,4-b]quinoline-2-carboxamide]"
2,1.73,"CC(C)(C)[C@H]1CCc2nc3sc(C(=O)N[C@H](CCN4CCCCC4)c4ccc(-c5cnc(O)c(N)c5)cc4)cc3cc2C1 [Example 241, (6S)-N-{(1R)-1-[4-(5-amino-6-hydroxypyridin-3-yl)phenyl]-3-piperidin-1-ylpropyl}-6-tert-butyl-5,6,7,8-tetrahydrothieno[2,3-b]quinoline-2-carboxamide]"
3,1.91,"CC(C)(C)[C@H]1CCc2nc3sc(C(=O)N[C@H](CCN4CCC(O)CC4)c4ccc(N5CCC(O)C5)nc4)nc3cc2C1 (mixture of isomers) [Example 190, rac-(7S)-7-tert-butyl-N-[rac-(1R)-3-(4-hydroxy-1-piperidyl)-1-[6-(3-hydroxypyrrolidin-1-yl)-3-pyridyl]propyl]-5,6,7,8-tetrahydrothiazolo[5,4-b]quinoline-2-carboxamide]"

# The remaining lines, values behind:
row,SMILES,EC50 [µM]
1,"CC(C)(C)[C@H]1CCc2nc3sc(C(=O)N[C@H](CCNCCO)c4ccc(-c5ccc(=O)[nH]c5)cc4)cc3cc2C1 (racemic) [Example 49, 2-hydroxyethyl-[rac-(3R)-3-[4-(6-oxo-1H-pyridin-3-yl)phenyl]-3-[[rac-(6S)-6-tert-butyl-5,6,7,8-tetrahydrothieno[2,3-b]quinoline-2-carbonyl]amino}propyl] ammonium;formate]",0.682
2,"CC(C)(C)[C@H]1CCc2nc3sc(C(=O)N[C@H](CCN4CCCC(c5cccnc5)C4)c4cccc(NS(C)(=O)=O)c4)cc3cc2C1 (mixture of isomers) [Example 18, ammonium; methylsulfonyl-[3-[rac-(1R)-3-[3-(3-pyridyl)-1-piperidyl]-1-[rac-(6S)-6-tert-butyl-5,6,7,8-tetrahydrothieno[2,3-b]quinoline-2-carbonyl]amino]propyl]phenyl]azanide]",1.28
3,"COC[C@@H]1CCCN1CC[C@@H](NC(=O)c1cc2cc3c(nc2s1)CC[C@H](C(C)(C)C)C3)c1ccc(-c2ccc(=O)[nH]c2)cc1 (racemic) [Example 43, rac-(6S)-6-tert-butyl-N-[rac-(1R)-1-[4-(6-oxo-1H-pyridin-3-yl)phenyl]-3-[rac-(2S)-2-(methoxymethyl)pyrrolidin-1-yl]propyl]-5,6,7,8-tetrahydrothieno[2,3-b]quinoline-2-carboxamide]",0.663
4,"CC(C)(C)[C@H]1CCc2nc3sc(C(=O)N[C@H](CCN4CCCCC4)c4ccc(-c5cncnc5)cc4)cc3cc2C1 (racemic) [Example 7, rac-(6S)-6-tert-butyl-N-[rac-(1R)-3-(1-piperidyl)-1-(4-pyrimidin-5-ylphenyl)propyl]-5,6,7,8-tetrahydrothieno[2,3-b]quinoline-2-carboxamide]",2
5,"CC(C)(C)[C@H]1CCc2nc3sc(C(=O)N[C@H](CCNC4CCCC4)c4ccc(-c5ccc(=O)[nH]c5)cc4)cc3cc2C1 (racemic) [Example 52, cyclopentyl-[rac-(3R)-3-[4-(6-oxo-1H-pyridin-3-yl)phenyl]-3-[[rac-(6S)-6-tert-butyl-5,6,7,8-tetrahydrothieno[2,3-b]quinoline-2-carbonyl]amino]propyl] ammonium;formate]",0.729
6,"CN(CC[C@@H](NC(=O)c1cc2cc3c(nc2s1)CC[C@H](C(C)(C)C)C3)c1ccc(-c2ccc(=O)[nH]c2)cc1)C1CCCC1 (racemic) [Example 50, cyclopentyl-methyl-[rac-(3R)-3-[4-(6-oxo-1H-pyridin-3-yl)phenyl]-3-[rac-(6S)-6-tert-butyl-5,6,7,8-tetrahydrothieno[2,3-b]quinoline-2-carbonyl]amino]propyl] ammonium;formate]",0.696
